One test has as its system CD8+ T cells. The experiment in a line: In vitro T-cell priming assay with aAPCs (in vitro immunogenicity for MHC class I presented peptides). Particulars: in vitro immunogenicity, HLA B*08. The test is classed as cell-based, human.
A further test relates to HLA-B*08. Briefly: MHC binding assay (UV-ligand exchange, β2m ELISA). On the set-up: species or system human.

“297 (RAQLKLVAL; listed as Homo sapiens) [compound 297]”: the “Wells positive [%]” value in the test on CD8+ T cells was ““+” (<20% = +)”. In addition, the “Peptide exchange (peptide exchange yield, MHC class I binding score)” value (shortened to “Peptide exchange”) in the test on HLA-B*08 is on record as ““++++” (>75% = ++++)”. For the substance “298 (FNKRKPLSL; listed as Homo sapiens) [compound 298]”, in the test with CD8+ T cells, the “Wells positive [%]” value is on record as ““+” (<20% = +)”. For the same substance, the “Peptide exchange” value in the test on HLA-B*08 is ““+++” (>50 = +++)”. For “299 (MAQFKEISL; listed as Homo sapiens) [compound 299]”, the “Wells positive [%]” value in the test with CD8+ T cells is listed as ““++++” (>=70% = ++++)”. In addition, the “Peptide exchange” value in the test with HLA-B*08 is on record as ““++++” (>75% = ++++)”. For “300 (VASPKHCVL; listed as Homo sapiens) [compound 300]”, in that order: ““+” (<20% = +)” and ““+++” (>50 = +++)”. The like results for “303 (LPFPKFTV; listed as Homo sapiens) [compound 303]” were, in that order, ““++” (20%-49% = ++)” and ““++++” (>75% = ++++)”. The like results for “305 (ALKLRVAVL; listed as Homo sapiens) [compound 305]” were, in that order, ““+” (<20% = +)” and ““++++” (>75% = ++++)”.

With “306 (ILKVKVGL; listed as Homo sapiens) [compound 306]”, the “Wells positive [%]” value in the test with CD8+ T cells is ““+” (<20% = +)”. For the same substance, the “Peptide exchange” value in the test with HLA-B*08 is reported as ““++++” (>75% = ++++)”.

Take “307 (ILLPRTVSL; listed as Homo sapiens) [compound 307]”: the “Wells positive [%]” value in the test with CD8+ T cells is ““+” (<20% = +)”. The “Peptide exchange” value with HLA-B*08 is recorded as ““++++” (>75% = ++++)”. On to “308 (MLKQKVEEL; listed as Homo sapiens) [compound 308]”, for which, in the test on CD8+ T cells, the “Wells positive [%]” value is recorded as ““+” (<20% = +)”. Besides, the “Peptide exchange” value in the test with HLA-B*08 was ““++++” (>75% = ++++)”. For “311 (EIRIRVVQM; listed as Homo sapiens) [compound 311]”, in that order: ““+” (<20% = +)” and ““++++” (>75% = ++++)”.

As to “312 (EAMLRNKEL; listed as Homo sapiens) [compound 312]”, the “Wells positive [%]” value with CD8+ T cells is on record as ““+” (<20% = +)”. In addition, in the test with HLA-B*08, the “Peptide exchange” value is recorded as ““++++” (>75% = ++++)”. For the substance “313 (ELKKKEYEEL; listed as Homo sapiens) [compound 313]”, the “Wells positive [%]” value in the test with CD8+ T cells was ““+” (<20% = +)”. The “Peptide exchange” value in the test on HLA-B*08 is ““++++” (>75% = ++++)”. For the substance “314 (AIISRLVAL; listed as Homo sapiens) [compound 314]”, in the test with CD8+ T cells, the “Wells positive [%]” value is given as ““++” (20%-49% = ++)”. Besides, the “Peptide exchange” value with HLA-B*08 was ““++++” (>75% = ++++)”.

Consider “315 (DIYQRALNL; listed as Homo sapiens) [compound 315]”, for which the “Wells positive [%]” value with CD8+ T cells is ““+” (<20% = +)”. The “Peptide exchange” value in the test with HLA-B*08 is ““++++” (>75% = ++++)”. For “316 (VIKEKALTL; listed as Homo sapiens) [compound 316]”, in that order: ““+” (<20% = +)” and ““+++” (>50 = +++)”. For “317 (LVKVKVLL; listed as Homo sapiens) [compound 317]”, in the test with HLA-B*08, the “Peptide exchange” value is reported as ““++++” (>75% = ++++)”.

For the substance “318 (EAAIRSVEL; listed as Homo sapiens) [compound 318]”, the “Wells positive [%]” value in the test on CD8+ T cells is on record as ““++” (20%-49% = ++)”. Further, the “Peptide exchange” value with HLA-B*08 is ““++++” (>75% = ++++)”.

Source of the values: patent publication US11292821B2, “Peptides and combination of peptides for use in immunotherapy against lung cancer, including NSCLC, SCLC and other cancers” (Immatics Biotechnologies GmbH, priority 2017, dated 2022).
